In ChEMBL document CHEMBL4837216, “Polymyxin B-inspired non-hemolytic tyrocidine A analogues with significantly enhanced activity against gram-negative bacteria: How cationicity impacts cell specificity and antibacterial mechanism” (Eur J Med Chem, 2021) one finds MIC, HC50 and Activity data, which are given here for eleven compounds.

In brackets after ≈: the same amount, converted by molar mass. Activity calls are given as the source filed them. No cut-off for these calls is given here. Where a SMILES comes first, the peptide text is derived from it. Bridges are numbered along the chain shown (N, C = ends). [ ]: non-standard residue; d: D form. The star is where a group is joined. X1 = CC[C@H](C)CCCCC(=O)*; Orn = NCCC[C@H](N)C(=O)O; Dab = NCC[C@H](N)C(=O)O

The subject of data set [1] is Escherichia coli. Nature of the data set: Antibacterial activity against Escherichia coli ATCC 8739 assessed as inhibition of bacterial growth measured after 24 hrs by turbidity based analysis. The class given is functional.
The next data set has as its system Pseudomonas aeruginosa. As to the kind of experiment: Antibacterial activity against Pseudomonas aeruginosa ATCC 27853 assessed as inhibition of bacterial growth measured after 24 hrs by turbidity based analysis. The class given is functional.
Another data set has as its system Acinetobacter baumannii. Nature of the data set: Antibacterial activity against Acinetobacter baumannii ATCC 19606 assessed as inhibition of bacterial growth measured after 24 hrs by turbidity based analysis. The class given is functional. To be noted: ATCC 19606 = CIP 70.34 = JCM 6841.
For data set [2], the system named is Staphylococcus aureus. Nature of the data set: Antibacterial activity against Staphylococcus aureus ATCC 6538 assessed as inhibition of bacterial growth measured after 24 hrs by turbidity based analysis. The class given is functional.
A further data set relates to Enterococcus faecalis. As to the kind of experiment: Antibacterial activity against Enterococcus faecalis ATCC 29212 assessed as inhibition of bacterial growth measured after 24 hrs by turbidity based analysis. Type of data set: functional.
In data set [3] the test system is Staphylococcus aureus. As to the kind of experiment: Antibacterial activity against methicillin resistant Staphylococcus aureus assessed as inhibition of bacterial growth measured after 24 hrs by turbidity based analysis. The class given is functional.
The nature of data set [4]: Hemolytic activity in human RBC assessed as induction of cell lysis measured after 30 mins by microtiter plate method. To be noted: human red blood cells (erythrocytes). The class given is cell-based, Erythrocyte.
Another data set concerns Lipopolysaccharide (LPS). As to the kind of experiment: Displacement of dansyl-polymyxinB from LPS (unknown origin) assessed as decrease in fluorescence intensity by fluorescence spectrophotometric analysis.
For data set [5], the system named is Cell membrane. Nature of the data set: Induction of outer membrane permeabilization to NPN in Escherichia coli ATCC 8739 cells assessed as increase in fluorescence intensity by NPN-probe based fluorescence spectrophotometric analysis. Type of data set: subcellular.
Data set [6] has as its system Cell membrane. As to the kind of experiment: Induction of cytoplasmic membrane depolarization in Escherichia coli assessed as increase in fluorescence intensity a 1XMIC by DiSC3-5 dye based fluorescence method.
Data set [7] concerns Cell membrane. Nature of the data set: Induction of cytoplasmic membrane depolarization in Staphylococcus aureus assessed as increase in fluorescence intensity a 1XMIC by DiSC3-5 dye based fluorescence method.
In data set [8] the test system is Staphylococcus aureus. As to the kind of experiment: Antibacterial activity against Staphylococcus aureus ATCC 6538 assessed as inhibition of bacterial growth measured after 17 passages by turbidity based analysis. Type of data set: functional, organism-based.
The subject of data set [9] is Escherichia coli. Nature of the data set: Antibacterial activity against Escherichia coli ATCC 8739 assessed as inhibition of bacterial growth measured after 17 passages by turbidity based analysis. The class given is functional, organism-based.

Turning to `CC(C)C[C@@H]1NC(=O)[C@H](CCCN)NC(=O)[C@H](C(C)C)NC(=O)[C@H](Cc2ccc(O)cc2)NC(=O)[C@H](CCCN)NC(=O)[C@H](CC(N)=O)NC(=O)[C@@H](Cc2ccccc2)NC(=O)[C@H](Cc2ccccc2)NC(=O)[C@@H]2CCCN2C(=O)[C@@H](Cc2ccccc2)NC1=O` (cyclo(F[dF]N[Orn]YV[Orn]L[dF]P)), the MIC in the data set with Escherichia coli [1] is 5 µM (≈ 6.28 µg/mL); in the data set with Pseudomonas aeruginosa it was 40 µM (≈ 50.3 µg/mL); in the data set with Acinetobacter baumannii, 5 µM (≈ 6.28 µg/mL); in the data set with Staphylococcus aureus [2] it was 2.5 µM (≈ 3.14 µg/mL); in the data set on Enterococcus faecalis, 1.25 µM (≈ 1.57 µg/mL); with Staphylococcus aureus [3], 5 µM (≈ 6.28 µg/mL). Further, the HC50 at 0.5 h in data set [4] came out at 10 µM.
Take `CC(C)[C@@H]1NC(=O)[C@H](CCCN)NC(=O)[C@H](CCCN)NC(=O)[C@H](CCCN)NC(=O)[C@@H](Cc2ccccc2)NC(=O)[C@H](Cc2ccccc2)NC(=O)[C@@H]2CCCN2C(=O)[C@@H](Cc2ccccc2)NC(=O)[C@H](CCCN)NC(=O)[C@H](CCCN)NC1=O`: the outcome in the data set with Lipopolysaccharide (LPS) was Active. The MIC came to 80 µM (≈ 96.7 µg/mL) in the data set on Escherichia coli [1]; 80 µM (≈ 96.7 µg/mL) with Pseudomonas aeruginosa; 80 µM (≈ 96.7 µg/mL) in the data set with Acinetobacter baumannii; 40 µM (≈ 48.3 µg/mL) with Staphylococcus aureus [2]; 10 µM (≈ 12.1 µg/mL) with Enterococcus faecalis; 10 µM (≈ 12.1 µg/mL) in the data set with Staphylococcus aureus [3]. The HC50 at 0.5 h in [4] was greater than 400 µM.
`CC(C)C[C@@H]1NC(=O)[C@H](CCCN)NC(=O)[C@H](C(C)C)NC(=O)[C@H](Cc2ccc(O)cc2)NC(=O)[C@H](CCCN)NC(=O)[C@H](CCCN)NC(=O)[C@@H](Cc2ccccc2)NC(=O)C(Cc2ccccc2)NC(=O)[C@@H]2CCCN2C(=O)[C@@H](Cc2ccccc2)NC1=O` (single isomer, unassigned): the MIC in the data set with Escherichia coli [1] worked out at 5 µM (≈ 6.28 µg/mL); in the data set with Pseudomonas aeruginosa it was 40 µM (≈ 50.3 µg/mL); in the data set on Acinetobacter baumannii, 5 µM (≈ 6.28 µg/mL); in the data set on Staphylococcus aureus [2], 5 µM (≈ 6.28 µg/mL); with Enterococcus faecalis, 2.5 µM (≈ 3.14 µg/mL); in the data set with Staphylococcus aureus [3], 5 µM (≈ 6.28 µg/mL). For the same compound, in data set [4], the HC50 at 0.5 h was 24 µM.
For `CC(C)C[C@@H]1NC(=O)[C@H](CCCN)NC(=O)[C@H](C(C)C)NC(=O)[C@H](CCCN)NC(=O)[C@H](CCCN)NC(=O)[C@H](CCCN)NC(=O)[C@@H](Cc2ccccc2)NC(=O)[C@H](Cc2ccccc2)NC(=O)[C@@H]2CCCN2C(=O)[C@@H](Cc2ccccc2)NC1=O`, the outcome in the data set with Lipopolysaccharide (LPS), in the data set with Cell membrane [5], in the data set on Cell membrane [6] and with Cell membrane [7] was Active. In addition, the MIC in the data set with Escherichia coli [1] was 5 µM (≈ 6.04 µg/mL); with Pseudomonas aeruginosa it was 20 µM (≈ 24.2 µg/mL); in the data set on Acinetobacter baumannii, 10 µM (≈ 12.1 µg/mL); in the data set with Staphylococcus aureus [2], 5 µM (≈ 6.04 µg/mL); in the data set with Enterococcus faecalis it was 5 µM (≈ 6.04 µg/mL); in the data set with Staphylococcus aureus [3] it was 10 µM (≈ 12.1 µg/mL). For the same compound, the HC50 at 0.5 h in [4] amounted to 196 µM.
Regarding `CC(C)C[C@@H]1NC(=O)[C@H](CCCN)NC(=O)[C@H](C(C)C)NC(=O)[C@H](CCCN)NC(=O)[C@H](CCC(N)=O)NC(=O)[C@H](CCCN)NC(=O)[C@@H](Cc2ccccc2)NC(=O)[C@H](Cc2ccccc2)NC(=O)[C@@H]2CCCN2C(=O)[C@@H](Cc2ccccc2)NC1=O`, the MIC is 5 µM (≈ 6.11 µg/mL) in the data set on Escherichia coli [1]; 40 µM (≈ 48.9 µg/mL) in the data set with Pseudomonas aeruginosa; 10 µM (≈ 12.2 µg/mL) in the data set on Acinetobacter baumannii; 5 µM (≈ 6.11 µg/mL) in the data set with Staphylococcus aureus [2]; 5 µM (≈ 6.11 µg/mL) in the data set on Enterococcus faecalis; 10 µM (≈ 12.2 µg/mL) in the data set with Staphylococcus aureus [3]. Moreover, in data set [4], the HC50 at 0.5 h came out at 282 µM. Moreover, the result in the data set on Cell membrane [5], in the data set on Cell membrane [6] and in the data set on Cell membrane [7] was Active.
Regarding `O=C(O)c1cn(C2CC2)c2cc(N3CCNCC3)c(F)cc2c1=O`, the outcome with Staphylococcus aureus [8] and with Escherichia coli [9] was inactive.
Take `NCCC[C@@H]1NC(=O)[C@H](CCCN)NC(=O)[C@H](CCCN)NC(=O)[C@H](CCCN)NC(=O)[C@@H](Cc2ccccc2)NC(=O)[C@H](Cc2ccccc2)NC(=O)[C@@H]2CCCN2C(=O)[C@@H](Cc2ccccc2)NC(=O)[C@H](CCCN)NC(=O)[C@H](CCCN)NC1=O`: the result in the data set with Lipopolysaccharide (LPS) and with Cell membrane [5] was Active. Moreover, the MIC was 40 µM (≈ 48.9 µg/mL) with Escherichia coli [1]; 80 µM (≈ 97.9 µg/mL) with Pseudomonas aeruginosa; 80 µM (≈ 97.9 µg/mL) in the data set on Acinetobacter baumannii; 20 µM (≈ 24.5 µg/mL) with Staphylococcus aureus [2]; 10 µM (≈ 12.2 µg/mL) in the data set with Enterococcus faecalis; 40 µM (≈ 48.9 µg/mL) in the data set with Staphylococcus aureus [3]. Also, the HC50 at 0.5 h in data set [4] was greater than 400 µM. The result in the data set on Cell membrane [6] and with Cell membrane [7] was inactive.
Take `CC[C@H](C)CCCCC(=O)N[C@@H](CCN)C(=O)N[C@H](C(=O)N[C@@H](CCN)C(=O)N[C@H]1CCNC(=O)[C@H]([C@@H](C)O)NC(=O)[C@H](CCN)NC(=O)[C@H](CCN)NC(=O)[C@H](CC(C)C)NC(=O)[C@@H](Cc2ccccc2)NC(=O)[C@H](CCN)NC1=O)[C@@H](C)O` (X1-[Dab]T[Dab][Dab][Dab][dF]L[Dab][Dab]T; lactam 4-C): the result in the data set on Lipopolysaccharide (LPS) was Active.
For `CC(C)C[C@@H]1NC(=O)[C@H](CCCN)NC(=O)[C@H](C(C)C)NC(=O)[C@H](CCCN)NC(=O)[C@H](CCCN)NC(=O)[C@H](CC(N)=O)NC(=O)[C@@H](Cc2ccccc2)NC(=O)[C@H](Cc2ccccc2)NC(=O)[C@@H]2CCCN2C(=O)[C@@H](Cc2ccccc2)NC1=O`, the MIC in the data set with Escherichia coli [1] stood at 10 µM (≈ 12.1 µg/mL); in the data set on Pseudomonas aeruginosa, 20 µM (≈ 24.1 µg/mL); in the data set with Acinetobacter baumannii, 10 µM (≈ 12.1 µg/mL); with Staphylococcus aureus [2] it was 10 µM (≈ 12.1 µg/mL); in the data set with Enterococcus faecalis it was 2.5 µM (≈ 3.02 µg/mL); in the data set on Staphylococcus aureus [3] it was 10 µM (≈ 12.1 µg/mL). The HC50 at 0.5 h in [4] turned out to be 70 µM.
Take `CC(C)C[C@@H]1NC(=O)[C@H](CCCN)NC(=O)[C@H](C(C)C)NC(=O)[C@H](Cc2ccc(O)cc2)NC(=O)[C@H](CCC(N)=O)NC(=O)[C@H](CCCN)NC(=O)[C@@H](Cc2ccccc2)NC(=O)[C@H](Cc2ccccc2)NC(=O)[C@@H]2CCCN2C(=O)[C@@H](Cc2ccccc2)NC1=O`: the MIC with Escherichia coli [1] is 20 µM (≈ 25.4 µg/mL); with Pseudomonas aeruginosa, 80 µM (≈ 102 µg/mL); with Acinetobacter baumannii, 5 µM (≈ 6.35 µg/mL); in the data set with Staphylococcus aureus [2] it was 5 µM (≈ 6.35 µg/mL); in the data set with Enterococcus faecalis, 2.5 µM (≈ 3.18 µg/mL); in the data set with Staphylococcus aureus [3], 20 µM (≈ 25.4 µg/mL). Also, the HC50 at 0.5 h in data set [4] was 20 µM. Also, the outcome in the data set on Cell membrane [5] was Active.
As to `CC(C)C[C@@H]1NC(=O)[C@H](CCCN)NC(=O)[C@H](C(C)C)NC(=O)[C@H](CCCN)NC(=O)[C@H](CCC(N)=O)NC(=O)[C@H](CC(N)=O)NC(=O)[C@@H](Cc2ccccc2)NC(=O)[C@H](Cc2ccccc2)NC(=O)[C@@H]2CCCN2C(=O)[C@@H](Cc2ccccc2)NC1=O`, the MIC in the data set on Escherichia coli [1] stood at 40 µM (≈ 48.9 µg/mL); in the data set on Pseudomonas aeruginosa it was 80 µM (≈ 97.7 µg/mL); in the data set on Acinetobacter baumannii, 10 µM (≈ 12.2 µg/mL); in the data set with Staphylococcus aureus [2], 10 µM (≈ 12.2 µg/mL); in the data set on Enterococcus faecalis, 5 µM (≈ 6.11 µg/mL); in the data set on Staphylococcus aureus [3] it was 10 µM (≈ 12.2 µg/mL). Also, in data set [4], the HC50 at 0.5 h was found to be 43 µM.
